Structures can show the parent of a compound that is named as a salt. Where two headings read alike, the source gives them in different places.
Legend:
VEGFR2 = VEGFR2 (Homo sapiens (Human), UniProt P35968); assay: VEGFR2 in vitro kinase inhibitory activity assay (TRF, Flt3 substrate); assay type: biochemical
[1] = tested on: parental wild-type Ba/F3 cells; assay: Ba/F3 (WT) cell proliferation assay (Alamar Blue); assay type: cell-based; settings: Mus musculus
Ba/F3-TEL-FGFR3 cells = assay: Ba/F3-TEL-FGFR3 cell proliferation assay (Alamar Blue); assay type: cell-based; settings: 72 hours, Alamar Blue; read-out: BaF3-TEL-FGFR3 prolif
[2] = tested on: LP-1 cell line (FGF-1/Heparin induced pERK); assay: Cell-based pERK ELISA, LP-1 cells; settings: Homo sapiens; for IC50: LP-1, read-out: LP-1 pERK ELISA (μM)
FGFR3 = FGFR3 (Homo sapiens (Human), UniProt P22607); assay: FGFR3 in vitro kinase inhibitory activity assay (TRF); settings: 3 h, read-out: FGFR3 % I
[3] = BaF3, read-out: BaF3 WT prolif, % inhibition
[4] = BaF3, 72 hours, Alamar Blue, read-out: BaF3 WT prolif
[5] = BaF3, at 10 μM, read-out: BaF3 WT prolif, % inhibition

VEGFR2, sequence (P35968 20-1356): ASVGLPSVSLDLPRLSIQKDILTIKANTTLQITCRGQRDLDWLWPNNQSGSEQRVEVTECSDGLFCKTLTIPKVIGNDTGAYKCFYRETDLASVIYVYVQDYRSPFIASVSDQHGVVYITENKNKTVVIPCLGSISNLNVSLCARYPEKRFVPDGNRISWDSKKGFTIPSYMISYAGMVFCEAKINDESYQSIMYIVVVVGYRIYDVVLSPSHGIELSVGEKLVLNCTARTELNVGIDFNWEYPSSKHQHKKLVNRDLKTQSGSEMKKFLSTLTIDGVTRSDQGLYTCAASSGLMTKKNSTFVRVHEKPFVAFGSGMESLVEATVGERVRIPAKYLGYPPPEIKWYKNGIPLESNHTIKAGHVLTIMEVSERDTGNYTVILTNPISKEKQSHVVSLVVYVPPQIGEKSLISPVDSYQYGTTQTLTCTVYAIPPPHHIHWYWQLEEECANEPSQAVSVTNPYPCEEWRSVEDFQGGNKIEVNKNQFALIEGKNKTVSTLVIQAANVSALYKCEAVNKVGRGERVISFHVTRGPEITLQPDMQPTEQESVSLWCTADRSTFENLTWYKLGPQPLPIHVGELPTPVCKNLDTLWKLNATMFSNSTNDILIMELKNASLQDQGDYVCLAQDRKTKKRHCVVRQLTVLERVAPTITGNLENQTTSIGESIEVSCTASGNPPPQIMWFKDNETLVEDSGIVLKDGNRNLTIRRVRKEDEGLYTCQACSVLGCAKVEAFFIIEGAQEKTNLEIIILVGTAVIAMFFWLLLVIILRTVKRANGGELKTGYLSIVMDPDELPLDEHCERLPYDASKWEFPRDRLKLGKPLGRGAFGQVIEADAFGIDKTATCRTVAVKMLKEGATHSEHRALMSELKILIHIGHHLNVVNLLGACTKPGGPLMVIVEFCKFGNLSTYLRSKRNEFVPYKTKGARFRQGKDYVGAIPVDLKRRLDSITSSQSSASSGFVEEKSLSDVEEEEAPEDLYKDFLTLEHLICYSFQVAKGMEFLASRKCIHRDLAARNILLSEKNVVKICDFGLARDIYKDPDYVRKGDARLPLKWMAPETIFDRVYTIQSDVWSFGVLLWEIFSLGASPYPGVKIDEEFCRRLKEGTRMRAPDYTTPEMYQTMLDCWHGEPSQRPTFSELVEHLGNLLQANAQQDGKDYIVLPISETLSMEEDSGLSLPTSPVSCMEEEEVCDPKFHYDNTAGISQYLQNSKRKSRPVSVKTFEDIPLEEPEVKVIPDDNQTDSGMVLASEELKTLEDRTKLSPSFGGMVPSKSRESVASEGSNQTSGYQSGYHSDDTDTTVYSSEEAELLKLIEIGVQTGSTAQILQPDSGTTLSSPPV
FGFR3, sequence (P22607 23-806): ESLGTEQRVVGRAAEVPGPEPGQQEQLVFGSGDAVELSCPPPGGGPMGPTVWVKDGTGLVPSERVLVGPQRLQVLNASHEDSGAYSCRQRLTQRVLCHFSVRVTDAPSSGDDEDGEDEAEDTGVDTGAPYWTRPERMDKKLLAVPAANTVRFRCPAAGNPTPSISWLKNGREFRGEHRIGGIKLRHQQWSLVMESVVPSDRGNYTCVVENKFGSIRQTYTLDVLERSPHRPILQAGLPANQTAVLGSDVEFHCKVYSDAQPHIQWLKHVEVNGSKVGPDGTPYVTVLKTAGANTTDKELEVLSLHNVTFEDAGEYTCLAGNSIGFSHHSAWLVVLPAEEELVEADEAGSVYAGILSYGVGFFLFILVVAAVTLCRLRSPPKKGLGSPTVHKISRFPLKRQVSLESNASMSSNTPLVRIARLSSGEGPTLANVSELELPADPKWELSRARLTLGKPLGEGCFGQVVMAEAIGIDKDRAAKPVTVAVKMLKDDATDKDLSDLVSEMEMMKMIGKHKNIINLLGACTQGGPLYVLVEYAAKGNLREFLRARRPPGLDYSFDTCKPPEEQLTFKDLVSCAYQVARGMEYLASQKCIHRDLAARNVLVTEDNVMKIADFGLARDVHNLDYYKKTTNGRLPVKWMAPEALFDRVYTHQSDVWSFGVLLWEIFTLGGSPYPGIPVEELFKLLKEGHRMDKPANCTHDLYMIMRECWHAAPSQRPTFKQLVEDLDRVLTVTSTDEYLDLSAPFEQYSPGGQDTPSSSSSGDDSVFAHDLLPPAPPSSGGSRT

Nc1cc(-c2ccn3c(-c4cccc(NC(=O)NCC(F)(F)F)c4)cnc3c2)nc(C(F)(F)F)n1 [Example 210]
inhibition at 0.1 µM (VEGFR2; 1 h, at 0.1 μM, read-out: VEGFR2 % I): 42%
inhibition at 3 µM [1, 3]: 13%

CCCCOC(=O)Nc1nc(-c2ccn3c(-c4cccc(NC(=O)NCC(F)(F)F)c4)cnc3c2)ncc1F [Compound 314]
inhibition at 3 µM (VEGFR2; 1 h, read-out: VEGFR2 % I): 62%
inhibition at 10 µM [1, 3]: 21%

CC(C)(C)OC(=O)NC1CN(c2ccnc(-c3ccn4c(-c5cccc(NC(=O)NCC(F)(F)F)c5)cnc4c3)n2)C1 [Example 193]
inhibition at 0.89 µM (VEGFR2; 1 h, at 0.89 μM, read-out: VEGFR2 % I): 36%
inhibition at 3.11 µM (VEGFR2; 1 h, at 3.11 μM, read-out: VEGFR2 % I): 48%
IC50 [1, 4]: 1.5 µM

CC(C)N1CC(n2cc(-c3ccn4c(-c5cccc(NC(=O)NCC(F)(F)F)c5)cnc4c3)cn2)C1 [Example 32, 1-(3-{7-[1-(1-Isopropylazetidin-3-yl)-1H-pyrazol-4-yl]imidazo[1,2-a]pyridin-3-yl}phenyl)-3-(2,2,2-trifluoroethyl)-urea]
IC50 (Ba/F3-TEL-FGFR3 cells): 0.012 µM
IC50 [1, 4]: 0.67 µM
IC50 [2]: 0.014 µM

O=C(NCC(F)(F)F)Nc1cc(OC2CCCC2)cc(-c2cnc3cc(-c4ncccn4)ccn23)c1 [Compound 284]
inhibition at 10 µM (VEGFR2; 1 h, at 10 μM, read-out: VEGFR2 % I): 62%
inhibition at 3 µM [1, 3]: 14%
IC50 [1, 4]: 3.4 µM

CC(=O)N1CC(n2cc(-c3ccn4c(-c5cccc(NC(=O)NCC(F)(F)F)c5)cnc4c3)cn2)C1 [Example 212]
IC50 (VEGFR2): > 0.3 µM
inhibition at 3 µM [1, 3]: 10%

Cc1cc(C)nc(-c2ccn3c(-c4cccc(NC(=O)NCC(F)(F)F)c4)cnc3c2)n1 [Example 160]
inhibition at 1 µM (VEGFR2; 1 h, read-out: VEGFR2 % I): 49.5%

Nc1cc(Cl)cnc1-c1ccn2c(-c3cccc(NC(=O)NCC(F)(F)F)c3)cnc2c1 [Example 146, 1-{3-[7-(3-Amino-5-chloro-pyridin-2-yl)-imidazo[1,2-a]pyridin-3-yl]-phenyl}-3-(2,2,2-trifluoro-ethyl)-urea]
inhibition at 1 µM (VEGFR2; 1 h, read-out: VEGFR2 % I): 51%
inhibition at 10 µM [1, 3]: 1.2%

CCN(CC)CCc1nnc(-c2ccn3c(-c4cccc(NC(=O)NCC(F)(F)F)c4)cnc3c2)s1 [Example 246]
inhibition at 0.3 µM (VEGFR2; 1 h, read-out: VEGFR2 % I): 45%
IC50 [1, 4]: 1 µM

Cc1noc(C)c1C#Cc1ccn2c(-c3cccc(NC(=O)NCC(F)(F)F)c3)cnc2c1 [Example 112, 1-{3-[7-(3,5-Dimethyl-isoxazol-4-ylethynyl)-imidazo[1,2-a]pyridin-3-yl]-phenyl}-3-(2,2,2-trifluoro-ethyl)-urea trifluoroacetate]
inhibition at 0.3 µM (FGFR3): 49%

O=C(NCC(F)(F)F)Nc1cccc(-c2cnc3cc(-c4nc(NC5CCC5)ncc4C(F)(F)F)ccn23)c1 [Example 191]
IC50 (VEGFR2): > 30 µM
inhibition at 1 µM [1, 3]: 18%

CCNC(=O)Nc1cccc(-c2cnc3cc(-c4ccnc(C(F)(F)F)n4)ccn23)c1 [Example 239]
inhibition at 1 µM (VEGFR2; 1 h, read-out: VEGFR2 % I): 49%
inhibition at 3 µM [1, 3]: 26%

CNC(=O)C(C)(C)n1cc(-c2ccn3c(-c4cccc(NC(=O)NCC(F)(F)F)c4)cnc3c2)cn1 [Example 69, N-Methyl-2-[4-(3-{3-[3-(2,2,2-trifluoro-ethyl)-ureido]-phenyl}-imidazo[1,2-a]pyridin-7-yl)-pyrazol-1-yl]-isobutyramide]
IC50 (Ba/F3-TEL-FGFR3 cells): 0.26 µM
IC50 [1, 4]: 4.6 µM
IC50 [2]: 0.096 µM

CN1CCCC(n2cc(-c3ccn4c(-c5cccc(NC(=O)NCC(F)(F)F)c5)cnc4c3)cn2)C1 (stereo not drawn) [Example 38, 1-(3-{7-[1-(1-Methylpiperidin-3-yl)-1H-pyrazol-4-yl]imidazo[1,2-a]pyridin-3-yl]phenyl)-3-(2,2,2-trifluoroethyl)urea hydrochloride]
IC50 (Ba/F3-TEL-FGFR3 cells): 0.022 µM
IC50 [1, 4]: 0.44 µM
IC50 [2]: 0.0086 µM

COCCOc1cc(NC(=O)NCC(F)(F)F)cc(-c2cnc3cc(-c4ncc(F)c(N)n4)ccn23)c1 [Compound 285]
inhibition at 3 µM (VEGFR2; 1 h, read-out: VEGFR2 % I): 51%
inhibition at 1 µM [1, 3]: 12%
inhibition at 10 µM [1, 3]: 10%

CCNC(=O)Nc1cccc(-c2cnc3cc(-c4nnc(C(F)(F)F)s4)ccn23)c1 [Example 236]
inhibition at 0.31 µM (FGFR3): 46%

Cc1cc(NC(=O)NCC(F)(F)F)cc(-c2cnc3cc(-c4ncc(F)c(N)n4)ccn23)c1 [Compound 291]
inhibition at 0.98 µM (VEGFR2; 1 h, at 0.98 μM, read-out: VEGFR2 % I): 57%
inhibition at 1 µM [1, 3]: 24%

CCN(CC)CCNC(=O)C(C)(C)n1cc(-c2ccn3c(-c4cccc(NC(=O)NCC(F)(F)F)c4)cnc3c2)cn1 [Example 68, N-(2-Diethylamino-ethyl)-2-[4-(3 {3-[3-(2,2,2-trifluoro-ethyl)-ureido]-phenyl}-imidazo[1,2-a]pyridin-7-yl)-pyrazol-1-yl]-isobutyramide]
IC50 (Ba/F3-TEL-FGFR3 cells): 1.5 µM
inhibition at 10 µM [1, 5]: 36%
IC50 [2]: 0.53 µM

CC(C)(C(N)=O)n1cc(-c2ccn3c(-c4cccc(NC(=O)NCC(F)(F)F)c4)cnc3c2)cn1 [Example 72, 2-[4-(3-{3-[3-(2,2,2-Trifluoro-ethyl)-ureido]-phenyl}-imidazo[1,2-a]pyridin-7-yl)-pyrazol-1-yl]-isobutyramide]
IC50 (Ba/F3-TEL-FGFR3 cells): 0.76 µM
inhibition at 10 µM [1, 5]: 32%
IC50 [2]: 0.3 µM

Cc1nc(-c2ccn3c(-c4cccc(NC(=O)NCC(F)(F)F)c4)cnc3c2)cc(C(F)(F)F)n1 [Example 238]
inhibition at 0.31 µM (VEGFR2; 1 h, at 0.31 μM, read-out: VEGFR2 % I): 40%
inhibition at 10 µM [1, 3]: 41%

O=C(NCC(F)(F)F)Nc1cccc(-c2cnc3cc(-c4ncc(C(F)(F)F)c(NC5CCC5)n4)ccn23)c1 [Example 192]
IC50 (VEGFR2): > 3 µM
inhibition at 3 µM [1, 3]: 49%

O=C(NCC(F)(F)F)Nc1cccc(-c2cnc3cc(-c4cccnn4)ccn23)c1 [Example 9, 1-[3-(7-Pyridazin-3-ylimidazo[1,2-a]pyridin-3-yl)phenyl]-3-(2,2,2-trifluoroethyl)urea hydrochloride]
IC50 (Ba/F3-TEL-FGFR3 cells): 0.797 µM
IC50 [1, 4]: 6.4 µM
IC50 [2]: 0.14 µM

Cc1cc(NC(=O)NCC(F)(F)F)cc(-c2cnc3cc(-c4ccnc(C(F)(F)F)n4)ccn23)c1 [Compound 306]
inhibition at 1 µM (VEGFR2; 1 h, read-out: VEGFR2 % I): 60%
inhibition at 10 µM [1, 3]: 0%

Cc1ccc(NC(=O)NCC(F)(F)F)cc1-c1cnc2cc(C#Cc3cncn3C)ccn12 [Compound 326]
inhibition at 0.978 µM (VEGFR2; 1 h, read-out: VEGFR2 % I): 45%
inhibition at 10 µM [1, 3]: 18%

CC(C)c1nccc(-c2ccn3c(-c4cccc(NC(=O)NCC(F)(F)F)c4)cnc3c2)n1 [Example 233]
inhibition at 3.1 µM (VEGFR2; 1 h, at 3.1 μM, read-out: VEGFR2 % I): 62%
IC50 [1, 4]: 0.0149 µM

CCNc1nc(-c2ccn3c(-c4cccc(NC(=O)NCC(F)(F)F)c4)cnc3c2)ncc1F [Example 177]
IC50 (VEGFR2): > 1 µM
inhibition at 10 µM [1, 3]: 16%
inhibition at 10 µM ([2]; LP-1, read-out: LP-1 pERK ELISA, % inhibition): 47%

Cc1nc(-c2ccn3c(-c4cccc(NC(=O)NCC(F)(F)F)c4)cnc3c2)cc(N(C)C)n1 [Example 198]
IC50 (Ba/F3-TEL-FGFR3 cells): 0.27 µM
inhibition at 3 µM [1, 3]: 39%

Nc1ncc(C(F)(F)F)c(-c2ccn3c(-c4cccc(NC(=O)NCC(F)(F)F)c4)cnc3c2)n1 [Example 179]
IC50 (VEGFR2): > 10 µM
inhibition at 1 µM [1, 3]: 22%

Nc1nc(-c2ccn3c(-c4cccc(NC(=O)NCC(F)(F)F)c4)cnc3c2)cc(C(F)(F)F)n1 [Example 245]
inhibition at 0.3 µM (VEGFR2; 1 h, read-out: VEGFR2 % I): 43%
IC50 [1, 4]: 2.2 µM

Nc1nc(-c2ccn3c(-c4cc(NC(=O)NCC(F)(F)F)ccc4F)cnc3c2)ncc1F [Compound 311]
inhibition at 0.978 µM (VEGFR2; 1 h, read-out: VEGFR2 % I): 20%
inhibition at 3 µM [1, 3]: 2%
inhibition at 10 µM [1, 3]: 32%

CNc1nc(-c2ccn3c(-c4cccc(NC(=O)NCC(F)(F)F)c4)cnc3c2)ncc1F [Example 162]
inhibition at 1 µM (VEGFR2; 1 h, read-out: VEGFR2 % I): 59%
inhibition at 3 µM [1, 3]: 37%
IC50 [2]: 0.091 µM

COc1cccc(-c2ccn3c(-c4cccc(NC(=O)NCC(F)(F)F)c4)cnc3c2)n1 [Example 101, 1-{3-[7-(6-Methoxy-pyridin-2-yl)-imidazo[1,2-a]pyridin-3-yl]-phenyl}-3-(2,2,2-trifluoro-ethyl)-urea]
IC50 [1, 4]: 0.16 µM
IC50 [2]: 0.055 µM

CC(O)C#Cc1ccn2c(-c3cccc(NC(=O)NCC(F)(F)F)c3)cnc2c1 (stereo not drawn) [Example 18, 1-{3-[7-(3-Hydroxybut-1-ynyl)imidazo[1,2-a]pyridin-3-yl]phenyl}-3-(2,2,2-trifluoroethyl)urea formate]
IC50 ([1]; BaF3, 72 h, read-out: BaF3 WT prolif (μM)): 1.4 µM
IC50 [2]: 0.095 µM

Cc1cnc(-c2ccn3c(-c4cccc(NC(=O)NCC(F)(F)F)c4)cnc3c2)cn1 [Example 93, 1-{3-[7-(5-Methyl-pyrazin-2-yl)-imidazo[1,2-a]pyridin-3-yl]-phenyl}-3-(2,2,2-trifluoro-ethyl)-urea]
IC50 [1, 4]: 0.043 µM
IC50 [2]: 0.065 µM

O=C(NCC(F)(F)F)Nc1cccc(-c2cnc3cc(-c4ccc(C(=O)N5CCOCC5)cn4)ccn23)c1 [Example 223]
inhibition at 0.3 µM (VEGFR2; 1 h, read-out: VEGFR2 % I): 39%
inhibition at 3 µM [1, 3]: 45%

CN(C)C1CCN(c2ccc(-c3ccn4c(-c5cccc(NC(=O)NCC(F)(F)F)c5)cnc4c3)nn2)CC1 [Example 36, 1-(3-{7-[6-(4-Dimethylaminopiperidin-1-yl)pyridazin-3-yl]imidazo[1,2-a]pyridin-3-yl}-phenyl)-3-(2,2,2-trifluoroethyl)urea hydrochloride.]
inhibition at 10 µM [1, 3]: 0%
IC50 [2]: 0.065 µM

CCN1CCC(n2cc(-c3ccn4c(-c5cccc(NC(=O)NCC(F)(F)F)c5)cnc4c3)cn2)C1 (stereo not drawn) [Example 44, 1-(3-{7-[1-(1-Ethyl-pyrrolidin-3-yl)-1H-pyrazol-4-yl)-imidazo[1,2-a]pyridin-3-yl}-phenyl)-3-(2,2,2-trifluoro-ethyl)-urea]
IC50 (Ba/F3-TEL-FGFR3 cells): 0.045 µM
IC50 [1, 4]: 0.9 µM
IC50 [2]: 0.022 µM

— patent US8796244B2, “Imidazopyridine derivatives as inhibitors of receptor tyrosine kinases” (Astex Therapeutics Ltd, priority 2008, dated 2014)
